Data published in ChEMBL document CHEMBL3045430, “Natural products-based insecticidal agents 11. Synthesis and insecticidal activity of novel 4α-arylsulfonyloxybenzyloxy-2β-chloropodophyllotoxin derivatives against Mythimna separata Walker in vivo” (2011).
Active and inactive are the calls of the source. No cut-off for these calls is given here.

Key:
Mythimna separata [1] = experiment: In vivo insecticidal activity against pre-third-instar larval stage of Mythimna separata (Oriental armyworm) in corn leaves assessed as induction of slim and wrinkled larval bodies at 1 mg/ml treated for 3 secs before larval infestation on corn leaves measured after 48 hr by leaf-dipping method; format: functional, organism-based
Mythimna separata [2] = experiment: In vivo insecticidal activity against pre-third-instar larval stage of Mythimna separata (Oriental armyworm) in corn leaves assessed as corrected mortality rate at 1 mg/ml treated for 3 secs before larval infestation on corn leaves measured after 35 days by leaf-dipping method; format: functional; details: 840 h
Mythimna separata [3] = experiment: In vivo insecticidal activity against pre-third-instar larval stage of Mythimna separata (Oriental armyworm) in corn leaves assessed as corrected mortality rate at 1 mg/ml treated for 3 secs before larval infestation on corn leaves measured after 20 days by leaf-dipping method; format: functional; details: 480 h
Mythimna separata [4] = experiment: In vivo insecticidal activity against pre-third-instar larval stage of Mythimna separata (Oriental armyworm) in corn leaves assessed as corrected mortality rate at 1 mg/ml treated for 3 secs before larval infestation on corn leaves measured after 10 days by leaf-dipping method; format: functional; details: 240 h
Mythimna separata [5] = experiment: In vivo insecticidal activity against pre-third-instar larval stage of Mythimna separata (Oriental armyworm) in corn leaves assessed as induction of malformed pupae at 1 mg/ml treated for 3 secs before larval infestation on corn leaves measured after […] by leaf-dipping method; format: functional, organism-based
Mythimna separata [6] = experiment: In vivo insecticidal activity against pre-third-instar larval stage of Mythimna separata (Oriental armyworm) in corn leaves assessed as induction of malformed moth with imperfect wings at 1 mg/ml treated for 3 secs before larval infestation on corn leaves measured after […] by leaf-dipping method; format: functional, organism-based

| SMILES | Activity (Mythimna separata [1]) | mortality at 1000 µg/mL (Mythimna separata [2]) [%] | mortality at 1000 µg/mL (Mythimna separata [3]) [%] | mortality at 1000 µg/mL (Mythimna separata [4]) [%] | Activity (Mythimna separata [5]) | Activity (Mythimna separata [6]) |
| --- | --- | --- | --- | --- | --- | --- |
| CCc1ccc(S(=O)(=O)Oc2ccc(CO[C@H]3c4cc5c(cc4[C@@H](c4cc(OC)c(OC)c(OC)c4)[C@@]4(Cl)C(=O)OC[C@H]34)OCO5)cc2)cc1 | Active | 56 | 38.5 | 14.3 | – | – |
| COc1ccc(S(=O)(=O)Oc2ccc(CO[C@H]3c4cc5c(cc4[C@@H](c4cc(OC)c(OC)c(OC)c4)[C@@]4(Cl)C(=O)OC[C@H]34)OCO5)cc2)cc1 | – | 48 | 34.6 | 21.4 | – | – |
| CCc1ccc(S(=O)(=O)Oc2ccccc2CO[C@H]2c3cc4c(cc3[C@@H](c3cc(OC)c(OC)c(OC)c3)[C@@]3(Cl)C(=O)OC[C@H]23)OCO4)cc1 | Active | 68 | 57.7 | 35.7 | – | – |
| COc1cc([C@@H]2c3cc4c(cc3[C@H](OCc3ccc(OS(=O)(=O)c5cccc([N+](=O)[O-])c5)cc3)[C@H]3COC(=O)[C@]23Cl)OCO4)cc(OC)c1OC | – | 52 | 38.5 | 14.3 | Active | – |
| COc1cc([C@@H]2c3cc4c(cc3[C@H](O)[C@H]3COC(=O)[C@H]23)OCO4)cc(OC)c1OC [PODOFILOX] | – | 40 | 23.1 | 17.9 | – | – |
| COc1cc([C@@H]2c3cc4c(cc3[C@H](OCc3ccccc3OS(=O)(=O)c3ccc(C)cc3)[C@H]3COC(=O)[C@]23Cl)OCO4)cc(OC)c1OC | – | 52 | 34.6 | 21.4 | – | – |
| COc1cc([C@@H]2c3cc4c(cc3[C@H](OCc3ccc(OS(=O)(=O)c5ccccc5)cc3)[C@H]3COC(=O)[C@]23Cl)OCO4)cc(OC)c1OC | – | 36 | 30.8 | 14.3 | Active | – |
| COc1ccc(S(=O)(=O)Oc2ccccc2CO[C@H]2c3cc4c(cc3[C@@H](c3cc(OC)c(OC)c(OC)c3)[C@@]3(Cl)C(=O)OC[C@H]23)OCO4)cc1 | – | 48 | 34.6 | 17.9 | – | Active |
| CC(=O)O[C@@H]1C[C@H](O)[C@@]23CO[C@@H](O)[C@]1(C)[C@@H]2C[C@@H](O)[C@]1(C)[C@@H]3C(=O)[C@H](OC(C)=O)[C@@]2(C)[C@H](c3ccoc3)C[C@H]3O[C@]321 [TOOSENDANIN] | – | 48 | 34.6 | 17.9 | – | – |
| COc1cc([C@@H]2c3cc4c(cc3[C@H](OCc3ccccc3OS(=O)(=O)c3ccc(Cl)cc3)[C@H]3COC(=O)[C@]23Cl)OCO4)cc(OC)c1OC | – | 48 | 34.6 | 7.1 | – | Active |
| COc1cc([C@@H]2c3cc4c(cc3[C@H](OCc3ccc(OS(=O)(=O)c5ccc(Cl)c([N+](=O)[O-])c5)cc3)[C@H]3COC(=O)[C@]23Cl)OCO4)cc(OC)c1OC | – | 48 | 26.9 | 17.9 | – | – |
| COc1cc([C@@H]2c3cc4c(cc3[C@H](OCc3ccccc3OS(=O)(=O)c3ccccc3)[C@H]3COC(=O)[C@]23Cl)OCO4)cc(OC)c1OC | – | 40 | 26.9 | 7.1 | Active | Active |
| COc1cc([C@@H]2c3cc4c(cc3[C@H](OCc3ccccc3OS(=O)(=O)c3ccc(Cl)c([N+](=O)[O-])c3)[C@H]3COC(=O)[C@]23Cl)OCO4)cc(OC)c1OC | Active | 72 | 57.7 | 25 | Active | – |
| COc1cc([C@@H]2c3cc4c(cc3[C@H](O)[C@H]3COC(=O)[C@]23Cl)OCO4)cc(OC)c1OC [2BETA-CHLOROPODOPHYLLOTOXIN] | – | 36 | 15.4 | 14.3 | – | – |
| COc1cc([C@@H]2c3cc4c(cc3[C@H](OCc3ccc(OS(=O)(=O)c5ccc(C)cc5)cc3)[C@H]3COC(=O)[C@]23Cl)OCO4)cc(OC)c1OC | – | 40 | 38.5 | 17.9 | Active | – |
| COc1cc([C@@H]2c3cc4c(cc3[C@H](OCc3ccccc3)[C@H]3COC(=O)[C@]23Cl)OCO4)cc(OC)c1OC [4ALPHA-BENZYLOXY-2-CHLOROPODOPHYLLOTOXIN] | – | 52 | 19.2 | 10.7 | – | – |
| COc1cc([C@@H]2c3cc4c(cc3[C@H](OCc3ccc(OS(=O)(=O)c5ccc(Cl)cc5)cc3)[C@H]3COC(=O)[C@]23Cl)OCO4)cc(OC)c1OC | – | 40 | 38.5 | 28.6 | – | – |
| COc1cc([C@@H]2c3cc4c(cc3[C@H](OCc3ccccc3OS(=O)(=O)c3cccc([N+](=O)[O-])c3)[C@H]3COC(=O)[C@]23Cl)OCO4)cc(OC)c1OC | – | 36 | 34.6 | 10.7 | Active | Active |
